Data: PMC7915449, “Differential Regulation of Bilastine Affinity for Human Histamine H1 Receptors by Lys 179 and Lys 191 via Its Binding Enthalpy and Entropy” (International Journal of Molecular Sciences, 2021)

Tests used:
[1] = biological target: T1, wild-type human H1 receptors (WT) (Homo sapiens, UniProt P35367); assay: biochemical; assay type: binding
T1 construct: 3xHA (three copies of hemagglutinin YPYDVPDYA) (N); membrane preparations

[2] = test system: wild-type human H1 receptors (WT); assay: biochemical; assay type: binding; conditions: mutants K179A, K191A, K179A + K191A versus WT, 25 °C; significant
[3] = biological target: T2, K179A (Lys179 mutant of H1 receptor to alanine) (Homo sapiens, UniProt P35367, K179A); assay: [3H]mepyramine displacement binding, membranes of CHO cells expressing K179A mutant
T2 construct: 3xHA (three copies of hemagglutinin YPYDVPDYA) (N); expressed in transfected cells; membrane preparations
T2 sequence (P35367 whole entry K179A): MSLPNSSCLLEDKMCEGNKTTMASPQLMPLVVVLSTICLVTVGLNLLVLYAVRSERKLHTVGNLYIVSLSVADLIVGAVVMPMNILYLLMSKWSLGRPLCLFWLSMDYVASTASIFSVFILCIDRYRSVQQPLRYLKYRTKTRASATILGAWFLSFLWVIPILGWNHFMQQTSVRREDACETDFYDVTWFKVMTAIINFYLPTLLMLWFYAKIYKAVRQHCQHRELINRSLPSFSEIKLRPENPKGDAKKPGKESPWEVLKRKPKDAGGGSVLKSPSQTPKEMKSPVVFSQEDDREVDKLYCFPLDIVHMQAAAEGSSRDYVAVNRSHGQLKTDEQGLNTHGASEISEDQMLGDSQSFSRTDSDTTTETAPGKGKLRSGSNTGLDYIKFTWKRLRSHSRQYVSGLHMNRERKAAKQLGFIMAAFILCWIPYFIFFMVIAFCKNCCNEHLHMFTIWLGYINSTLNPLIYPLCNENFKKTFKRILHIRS
Protocol: (§1) To evaluate changes in the binding affinity of bilastine for H1 receptors by mutations of Lys179^ECL2 and/or Lys191^5.39, the IC50 for bilastine was first obtained from the displacement curves for the binding of 3 nM [^3H] mepyramine to membrane preparations of CHO cells expressing wild-type human H1 receptors (WT), Lys179^ECL2 or Lys191^5.39 mutants of WT to alanine (K179A and K191A), and both Lys179^ECL2 and Lys191^5.39 mutants of WT to alanine (K179A + K191A) at 4 °C–37 °C (Figure 3). The Ki values for bilastine were then calculated from the IC50, as described in the materials and methods section.
(§2) CHO cells stably expressing WT, K179A, K191A, and K179A + K191A were cultured, and membrane preparations were obtained as described previously. […] The reaction mixture was filtered through glass fiber filters, and the radioactivity trapped on the filters was determined by scintillation counting. […] The protein content in the membrane preparations was determined using a BCA protein assay kit (Pierce, Rockford, IL, USA).
(§3) The IC50 for bilastine was determined by fitting the displacement curves to the one-site model (KaleidaGraph; Synergy Software, Reading, PA, USA):B = 100 − P × C/(C + IC50) where B is the amount of [^3H] mepyramine bound, C is the free concentration of bilastine, and P is the percentage of the binding sites of bilastine. […]

[4] = biological target: T3, K191A (Lys191 mutant of H1 receptor to alanine) (Homo sapiens, UniProt P35367, K191A); assay: [3H]mepyramine displacement binding, membranes of CHO cells expressing K191A mutant
T3 construct: 3xHA (three copies of hemagglutinin YPYDVPDYA) (N); expressed in transfected cells; membrane preparations
T3 sequence (P35367 whole entry K191A): as the sequence (P35367 whole entry K179A) above, with A179K, K191A counted along it
Protocol: as §1
CHO cells stably expressing WT, K179A, K191A, and K179A + K191A were cultured, and membrane preparations were obtained as described previously. The receptor binding assay with [^3H] mepyramine, a radioligand for H1 receptors, was performed in accordance with the methods described previously. Briefly, aliquots (0.1 mL) of membrane preparations (approximately 50 µg of membrane proteins) were incubated with 3 nM [^3H] mepyramine in the presence or absence of various concentrations of bilastine for 3 h at 37 °C, 24 h at 25 °C and 14 °C, and 7 days at 4 °C in normal HEPES buffer (NaCl, 120 mM; KCl, 5.4 mM; MgCl2, 1.6 mM; CaCl2, 1.8 mM, D-glucose, 11 mM; and HEPES, 25 mM; pH 7.4 at 37 °C; final volume 1 mL). The reaction mixture was filtered through glass fiber filters, and the radioactivity trapped on the filters was determined by scintillation counting. All determinations were made in quadruplicate. The protein content in the membrane preparations was determined using a BCA protein assay kit (Pierce, Rockford, IL, USA).
as §3

[5] = biological target: T4, K179A + K191A (both Lys179 and Lys191 mutant of H1 receptor to alanine) (Homo sapiens, UniProt P35367, K179A/K191A); assay: [3H]mepyramine displacement binding, membranes of CHO cells expressing K179A + K191A mutant
T4 construct: 3xHA (three copies of hemagglutinin YPYDVPDYA) (N); expressed in transfected cells; membrane preparations
T4 sequence (P35367 whole entry K179A/K191A): as the sequence (P35367 whole entry K179A) above, with K191A counted along it
Protocol: as §1, §2, §3

[6] = K191A versus WT, van 't Hoff analysis 4-37 °C, significant

T1 sequence (P35367 whole entry): as the sequence (P35367 whole entry K179A) above, with A179K counted along it

In the case of CCOCCn1c(C2CCN(CCc3ccc(C(C)(C)C(=O)O)cc3)CC2)nc2ccccc21 [bilastine, Bilastine], the Ki [1] is reported as 1.92 ± 0.08 nM, the “reduction of affinity for H1 receptors following mutation of Lys179 and/or Lys191” value [2] is reported as 1.3 to 4.1 times and the Ki [3] is reported as 5.2 ± 1.18 nM. For the same molecule, the “reduction in the enthalpy-dependent binding forces (∆H°) by mutation” value ([3]; K179A versus WT, van 't Hoff analysis 4-37 °C, not significant) was 0.454 kcal/mol, the Ki [4] was 2.57 ± 0.16 nM and the “increase in enthalpy-dependent binding forces (∆H°) by mutation” value [4, 6] was 1.94 kcal/mol. For the same molecule, the “reduction in the entropy-dependent binding forces (∆T∆S°) by mutation” value [4, 6] was 1.96 kcal/mol, the Ki [5] was 7.96 ± 0.76 nM and the “reduction in the entropy-dependent binding forces (∆T∆S°) by mutation” value ([5]; K179A + K191A versus WT, van 't Hoff analysis 4-37 °C, not significant) was 0.526 kcal/mol.
